Measured values: ChEMBL document CHEMBL3286288, “Diterpenes from the endangered goldenrod Solidago shortii” (2014)
Activity calls are given as the source filed them. The rule behind the calls is not given here.

Experiments:
[1] = tested on: NCI-H460; test: Growth inhibition of human NCI-H460 cells after 72 hrs at 10 uM; assay type: functional, cell-based
[2] = tested on: Staphylococcus aureus; test: Antibacterial activity against methicillin-susceptible Staphylococcus aureus ATCC 25923 assessed as growth inhibition at 8 ug/ml after 24 hrs by broth microdilution method relative to control; assay type: functional; details: ATCC 25923, 24 h, read-out: GI
[3] = tested on: Staphylococcus aureus; test: Antibacterial activity against methicillin-resistant Staphylococcus aureus 108 assessed as growth inhibition up to 16 ug/ml after 24 hrs by broth microdilution method; assay type: functional, organism-based
[4] = tested on: Staphylococcus aureus; test: Antibacterial activity against methicillin-susceptible Staphylococcus aureus ATCC 25923 assessed as growth inhibition at 64 ug/ml after 24 hrs by broth microdilution method; assay type: functional, organism-based

SMILES | growth inhibition (GI) [1] | inhibition of growth at 8 µg/mL [2] | growth inhibition (GI) [3] | growth inhibition (GI) [4]
C[C@@H]1CC[C@]2(O)[C@H](C[C@H](O)C2(C)C)C(=O)[C@]1(C)CCC1=CC(=O)OC1 | inactive | 56% | inactive | 
C/C=C(/C)C(=O)O[C@H]1C[C@]2(C)[C@@H](CC[C@H]3O[C@]32C)[C@](C)(CCC2=CC(=O)OC2)[C@@H]1C | inactive |  | inactive | inactive
C/C=C(/C)C(=O)O[C@H]1C[C@]2(C)[C@@H](CC[C@@H](O)[C@]2(C)O)[C@](C)(CCC2=CC(=O)OC2)[C@@H]1C | inactive |  | inactive | 
C/C=C(/C)C(=O)O[C@H]1C[C@]2(C)[C@@H](CC[C@@H](NC(C)=O)[C@]2(C)O)[C@](C)(CCC2=CC(=O)OC2)[C@@H]1C | inactive |  | inactive | 
C/C=C(/C)C(=O)O[C@H]1C[C@]2(C)[C@@H](CC[C@@H](OC(=O)C(F)(F)F)[C@]2(C)O)[C@](C)(CCC2=CC(=O)OC2)[C@@H]1C | inactive |  | inactive | 
C[C@@H]1C[C@H]2C(=O)C(C)(C)[C@@H](O)CC[C@]2(O)[C@]1(C)CCC1=CC(=O)OC1 | inactive | 66% | inactive | 
